Several values for one entry are separate records, joined by “and”; a condition that tells them apart may be missing. Equal entries are not always repeated.
What was measured:
[1] = Continuous subcutaneous infusion in female SHR and SD rats, uterine weight; type: in vivo, rat; conditions: continuous s.c. infusion 1 or 10 ng/min
Procedure: Groups (4 to 9 animals in each group) of conscious, non-pregnant, Spontaneously Hypertensive (SHR) and Sprague-Dawley (SD) female rats weighing about 144-385 g each, were used in this experiment. The rats were anesthetized with ketamine hydrochloride (150 mg/kg) in order to cannulate the left iliac artery and to implant an osmotic pump. All surgery was performed under aseptic conditions. Stretched PE 50 tubing was fitted with an injection cap and flushed with heparinized saline, routed subcutaneously, exteriorized between the capsulae, and passed through a spring tether that is anchored to the skin with a nylon button. Extreme care was taken in cannulating the left iliac artery to avoid damage to collateral circulation and local innervation. An (Alzet) osmotic pump filled with relaxin or vehicle was then inserted into a subcutaneous pocket caudal to the exit point of the cannula.
All wounds were closed with suture, infiltrated with Xylocaine and coated with Betadine. […] Arterial pressure, heart rate, water intake, urine volume and vascular blood volume were measured daily throughout the duration of the experiments.
Arterial pressure and heart rate were measured directly through the arterial cannulae with standard pressure transducers (Stoelting) and strain gauge amplifiers (Stoelting). […]

[2] = test system: rat isolated atrial preparations; conditions: cited from earlier work
right atrium = assay: Right atrial rate, isolated spontaneously beating right atrium; set-up: species or system rat; conditions: for right atrial heart rate % Δ, mean (X): mean of experiments; for right atrial heart rate / right atrial heart rate % Δ: single experiment
Procedure: (§1) Krebs-Henseleit solution was prepared with the following composition (in millimoles): NaCl 118; KCl 4.7; MgSO4 1.64; NaHCO3 24.88; KH2 PO4 1.18; d-glucose 11.1; bubbled with 95% O2 /5% CO2; CaCl2 2.52.
(§2) Human (H2) relaxin (hRLx-2, 1.5 mg/ml; Genentech) was diluted fresh daily to desired concentrations (500:1; 5000:1; 50000:1) in Krebs-Henseleit solution.
(§3) Male Wistar rats (Charles River) weighing 475-525 g each, were anesthetized with sodium pentobarbital (60 mg/kg). After thoracotomy, the heart was removed rapidly and placed in cold (4° C.) Krebs-Henseleit solution until spontaneous contractions ceased. The right and left atria were excised.
(§4) Tissue was bathed in an organ chamber holding 42 ml Krebs-Henseleit solution that was aerated with 95% O2 /5% CO2 and heated to 37° C. with a temperature controlled water jacket. Tissue contractions were measured with force-displacement transducers (Grass FT 0.3) and recorded on chart paper (Grass moled 79 polygraph). The rates of contractions were determined with a cardiotachometer (Grass). Electrical stimulation of tissue was induced through bipolar clip electrodes connected to a stimulator through a stimulus isolation unit (Grass model S48).
Stainless steel clips weighing 0.5 g each were attached to each end of the right atrium. One clip was secured to a hook within the organ chamber and the other clip was attached to the force-displacement transducer. The position of the transducer was adjusted to yield 0.5 g resting tension.
(§5) In all experiments the atria were allowed to stabilize for 30 minutes prior to addition of drugs. […] Thus, cumulative dose-response curves were generated. At 10 minute intervals, relaxin was added to each organ chamber to obtain bath concentrations of 100 pg/ml, 300 pg/ml, 1 ng/ml, 3 ng/ml, 10 ng/ml and 30 ng/ml.
(§6) Measurement of contraction rate and force of contraction following each dose of relaxin were obtained after responses reached a steady state. Rate was determined directly from the output of the cardiotachometer. Force of contraction was measured as the magnitude of the contractile twitches. In order to adjust for variations between tissues, data are expressed as percent changes from pre-drug values, as means±standard errors. Measurements of rate were obtained in seven right atria; measurement of contractile force were obtained in four left atria.

left atrium = assay: Left atrial contraction, isolated electrically paced left atrium; set-up: species or system rat; conditions: for left atrium contractile force % Δ, mean (X): mean of four left atria; for left atrium contractile force % Δ: single experiment
Procedure: as §1, §2, §3, §4
A stainless steel clip was attached to the distal end of the left atrium and the proximal end was attached to a bipolar electrode. The electrode assembly was secured within the organ chamber and the upper clip was attached to the force-displacement transducer. The position of the transducer was adjusted to yield 1.0 g resting tension. The left atrium was stimulated at 3Hz at 1.5×threshold. The duration (3 msec) and intensity of the pulses (1.5-3.0 Volts) were kept constant throughout an experiment.
as §5, §6

[3] = 100 pg, change from pre-drug value

For relaxin, which uterine weight [1] is on record?
The uterine weight was “increased uterine weights”.

And the “chronotropic and inotropic effects” value [2]?
Its value is “positive chronotropic and inotropic effects”.

And the “right atrial heart rate % Δ, mean (X)” value (right atrium; 100 pg (printed under 30 pg))?
The value was 0.17%.

And the “right atrial heart rate” value (right atrium; 100 pg)?
The value was 290 beats/min and 270 beats/min and 300 beats/min and 320 beats/min.

What about the “right atrial heart rate % Δ” value (right atrium; [3]) of the same substance?
The value was 0% and 1%.

What about the “right atrial heart rate % Δ, mean (X)” value (right atrium; 300 pg (printed under 100 pg)) of the same substance?
Its value is 3.83%.

And the “right atrial heart rate” value (right atrium; 300 pg)?
The value was 300 beats/min and 295 beats/min and 310 beats/min and 330 beats/min.

What about the “right atrial heart rate % Δ” value (right atrium; 300 pg) of the same substance?
Its value is 3% and 9% and 5% and 0%.

What about the “right atrial heart rate % Δ, mean (X)” value (right atrium; 1 ng (printed under 300 pg)) of the same substance?
The value was 11.67%.

And the “right atrial heart rate” value (right atrium; 1 ng)?
The value was 320 beats/min and 310 beats/min and 350 beats/min and 345 beats/min.

And the “right atrial heart rate % Δ, mean (X)” value (right atrium; 3 ng (printed under 1 ng))?
The value was 23.33%.

What about the “right atrial heart rate” value (right atrium; 3 ng) of the same substance?
The value was 345 beats/min and 350 beats/min and 400 beats/min and 360 beats/min and 365 beats/min.

And the “right atrial heart rate % Δ, mean (X)” value (right atrium; 10 ng (printed under 3 ng))?
The value was 32.0%.

What about the “right atrial heart rate” value (right atrium; 10 ng) of the same substance?
Its value is 345 beats/min and 390 beats/min and 445 beats/min and 370 beats/min and 385 beats/min and 380 beats/min.

And the “right atrial heart rate % Δ, mean (X)” value (right atrium; 30 ng (printed under 10 ng))?
Its value is 36.2%.

What about the “average increase in contraction rate” value (right atrium; 30 ng/minute dose) of the same substance?
Its value is 36%.

And the “right atrial heart rate” value (right atrium; 30 ng)?
Its value is 400 beats/min and 450 beats/min and 385 beats/min and 395 beats/min and 405 beats/min.

And the “point of half maximal increase in contraction rate” value (right atrium; right atrium)?
The value was “about 1.8 ng/ml”.

And the “left atrium contractile force % Δ, mean (X)” value (left atrium; 100 pg)?
The value was -6%.

What about the “left atrium contractile force % Δ” value (left atrium; [3]) of the same substance?
Its value is -12% and -5% and -4% and -3%.

What about the “left atrium contractile force % Δ, mean (X)” value (left atrium; 300 pg) of the same substance?
The value was -9.5%.

And the “left atrium contractile force % Δ, mean (X)” value (left atrium; 1 ng)?
The value was 1.0%.

And the “left atrium contractile force % Δ, mean (X)” value (left atrium; 3 ng)?
Its value is 14.3%.

What about the “left atrium contractile force % Δ, mean (X)” value (left atrium; 10 ng) of the same substance?
The value was 30%.

What about the “left atrium contractile force % Δ” value (left atrium; 10 ng) of the same substance?
Its value is 22% and 38% and 40% and 20%.

And the “left atrium contractile force % Δ, mean (X)” value (left atrium; 30 ng)?
The value was 37.8%.

What about the “peak decrease in contractile force” value (left atrium; at 300 pg/ml) of the same substance?
The value was 10%.

And the “peak increase in contractile force” value (left atrium; at 30 ng/ml)?
The value was 38%.

What about the “point of half maximal increase in contractile force” value (left atrium; left atrium) of the same substance?
Its value is “about 4.8 ng/ml”.

Source: patent publication US5478807A, “Use of relaxin in the treatment of bradycardia” (Genentech, Inc., priority 1992, dated 1995)
